Test [1] has as its target T1, Carboxy-terminal domain RNA polymerase II polypeptide A small phosphatase 1 (Homo sapiens, UniProt Q9GZU7).
T1 sequence (Q9GZU7 whole entry): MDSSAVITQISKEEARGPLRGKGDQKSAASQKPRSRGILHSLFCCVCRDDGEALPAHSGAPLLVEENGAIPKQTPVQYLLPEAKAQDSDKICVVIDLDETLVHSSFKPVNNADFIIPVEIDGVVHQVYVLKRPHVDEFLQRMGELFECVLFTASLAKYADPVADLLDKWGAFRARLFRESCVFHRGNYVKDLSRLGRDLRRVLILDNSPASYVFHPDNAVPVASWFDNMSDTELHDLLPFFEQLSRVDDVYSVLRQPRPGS
Nature of the test: CTDSP1 inhibitors, concentration-response, biochemical, absorbance readout, ultra-high-throughput screen actives (AID 540297). The test is classed as functional.

The target of test [2] is T2, Methionyl-tRNA synthetase, putative (Trypanosoma brucei brucei, UniProt Q38C91). The test is classed as functional, Trypanosoma brucei brucei strain 927/4 GUTat10.1.
T2 sequence (Q38C91 whole entry): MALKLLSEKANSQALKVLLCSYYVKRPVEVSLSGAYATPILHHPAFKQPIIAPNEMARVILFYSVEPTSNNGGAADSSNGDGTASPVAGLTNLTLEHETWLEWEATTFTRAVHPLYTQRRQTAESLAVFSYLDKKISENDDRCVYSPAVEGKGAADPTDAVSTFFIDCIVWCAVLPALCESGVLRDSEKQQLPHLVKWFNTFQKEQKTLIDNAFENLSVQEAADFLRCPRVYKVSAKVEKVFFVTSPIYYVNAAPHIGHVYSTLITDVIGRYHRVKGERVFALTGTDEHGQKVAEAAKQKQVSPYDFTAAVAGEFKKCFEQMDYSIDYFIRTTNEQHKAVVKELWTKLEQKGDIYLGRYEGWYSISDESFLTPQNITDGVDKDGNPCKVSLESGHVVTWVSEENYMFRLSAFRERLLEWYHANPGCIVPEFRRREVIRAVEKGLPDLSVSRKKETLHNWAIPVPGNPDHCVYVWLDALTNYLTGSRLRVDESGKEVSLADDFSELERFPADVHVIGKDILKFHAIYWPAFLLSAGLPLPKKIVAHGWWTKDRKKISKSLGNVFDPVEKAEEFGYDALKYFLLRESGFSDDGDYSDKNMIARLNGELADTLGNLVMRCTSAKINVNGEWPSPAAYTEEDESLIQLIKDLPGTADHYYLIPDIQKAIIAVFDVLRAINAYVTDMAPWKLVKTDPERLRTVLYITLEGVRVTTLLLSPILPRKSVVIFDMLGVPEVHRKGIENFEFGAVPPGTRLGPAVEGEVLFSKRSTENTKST
A short description of test [3]: Counterscreen for inhibitors of Trypanosoma brucei methionyl tRNA synthetase (MetRS): Luminescence-based cell-based high throughput dose response assay to identify compounds that are cytotoxic to Jurkat human T lymphocyte cells. Format: functional. Background: The purpose of a counterscreen is to sort out artefacts and off-target activity.
Test [4] addresses T2, Methionyl-tRNA synthetase, putative. Format: functional, Trypanosoma brucei brucei strain 927/4 GUTat10.1. This is another data set of the same source.
The nature of test [5]: HEK-293T viability loss after treatment – luminescence, T-cell screen hits, cytotoxicity control for TCR NF-kB inhibitor project, dose response (AID 489026).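 Note: cells exposed to compound about 14 hours before the viability readout.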 The test is classed as functional, cell-based.
Test [6] can be described thus: viability loss in HEK293T cells – cell-based, cherry-picks, cytotoxicity control for HIV Vif inhibitor project, dose response (AID 652208). The test is classed as functional.
Test [7] has as its target T3, Scavenger receptor class B member 1 (Mus musculus, UniProt Q61009). Kind of test: mouse SR-BI DiI-HDL transfer blockers – ldlA[mSR-BI] CHO cells, fluorescence plate reader, dry powder, set 9, dose response (AID 623880). Format: functional, cell-based.
The nature of test [8]: cell viability loss, ATP luminescence – CellTiter-Glo, 24 h, powder samples, set 7, cytotoxicity control for SR-BI HDL uptake inhibitor project, dose response (AID 624026). The test is classed as functional, cell-based.
Test [9] concerns the target T3, Scavenger receptor class B member 1. Nature of the test: blockers of DiI-HDL lipid transfer via SR-BI – cell-based, ldlA[mSR-BI] CHO, DiI fluorescence, dry powder, set 10, dose response (AID 624029). The test is classed as functional.
In test [10] the test system is BJ. Nature of the test: BJ-TERT fibroblast viability loss – cell-based, RAS-independent, luminescence, dose response (AID 1933). The test is classed as functional. The following applies: Homo sapiens.
Test [11] relates to BJ. Kind of test: cells. Format: functional, cell-based. The settings on record: Homo sapiens.
The subject of test [12] is BJ. Kind of test: BJ-TERT-LT-ST fibroblast viability loss – cell-based, RAS-independent, luminescence, dose response (AID 1935).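 Note: BJ fibroblasts immortalized with TERT plus LT and ST oncogenes.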 The test is classed as functional. The settings on record: Homo sapiens.
The nature of test [13]: DRD fibroblast viability loss – cell-based, non-viral oncogenic, luminescence, dose response (AID 1934). Format: functional. The settings on record: Homo sapiens.
Test [14] in a line: Luminescence Cell-Based Dose Retest to Confirm Inhibitors of Cancer Stem Cells. [Related pubchem assays (depositor defined):AID2717, AID2721]. The test is classed as functional. The following applies: Homo sapiens.
For test [15], the target named is Heat shock protein HSP 90-alpha (Homo sapiens, UniProt P07900). Format: functional, organism-based.
The subject of test [16] is BJ. Kind of test: growth inhibition of engineered Ras-driven BJ cells – cell-based, alamar blue fluorescence, cherrypicked samples, dose response (AID 2631).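 Note: confirmatory dose-response assay in RAS-dependent BJ fibroblasts engineered with TERT, LT and ST, with cytotoxicity read by fluorescence.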 Format: functional. The following applies: Homo sapiens. On the technique in general: The colour change of resazurin is a common sign of viable cells or microbes.
A further test deals with INS1. Nature of the test: INS-1E survival protection against cytokine death – cell-based, luminescence, retest, dose response (AID 449756).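 Note: cell death triggered by IL-1 beta plus TNF-alpha plus IFN-gamma mixture; protective hits raise ATP signal compared with cytokine alone wells.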 Format: functional. The following applies: Rattus norvegicus.
Test [17] has as its target SWI/SNF-related matrix-associated actin-dependent regulator of chromatin subfamily A member 2 (Homo sapiens, UniProt P51531). Nature of the test: Luminescence-based cell-based high throughput dose response assay to identify activators of the function of SWI/SNF related, matrix associated, actin dependent regulator of chromatin, subfamily a, member 2 (SMARCA2, BRM). Format: functional.

Test [18] can be described thus: Counterscreen for activators of the function of SWI/SNF related, matrix associated, actin dependent regulator of chromatin, subfamily a, member 2 (SMARCA2, BRM): Luminescence-based cell-based high throughput dose response assay to identify non-selective compounds using the VP16 reporter assay. Format: functional.
In test [19] the target is T4, Genome polyprotein (Hepatitis C virus, UniProt Q2Q167).
T4 sequence (Q2Q167 whole entry): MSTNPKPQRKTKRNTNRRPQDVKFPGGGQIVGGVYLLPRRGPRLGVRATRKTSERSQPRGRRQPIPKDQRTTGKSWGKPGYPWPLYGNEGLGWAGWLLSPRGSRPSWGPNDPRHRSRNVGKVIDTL
Kind of test: disruption of hepatitis C core self-association – biochemical, TR-FRET, dose response (AID 2159).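 Note: blocks dimerization of HCV core protein measured by TR-FRET between tagged core106 pairs.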 Further details: species or system Hepacivirus hominis.

Test [20] addresses T4, Genome polyprotein. Nature of the test: Late stage assay provider counterscreen results for the probe development effort to identify inhibitors of Hepatitis C Virus (HCV) core protein dimerization: Luminescence-based biochemical AlphaScreen assay to identify inhibitors of HCV core dimerization. Format: functional, Hepacivirus hominis.
The nature of test [21]: reduction of Shn3 3'UTR-driven luciferase in osteoblasts – cell-based, Clone20 osteoblasts, firefly luciferase, cherry-picked, dose response (AID 624132).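 Note: firefly luciferase luminescence from reporter carrying the Shn3 3'UTR in osteoblasts.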 Format: functional.
A short description of test [22]: non-specific 3'UTR reporter inhibition in Clone20-Shn3RL – cell-based, Renilla luciferase, cherry-picked, counter-screen for Shn3 inhibitor project, dose response (AID 624133). The test is classed as functional.
The next test deals with T5, Protein skinhead-1 (Caenorhabditis elegans, UniProt P34707).
T5 sequence (P34707 whole entry): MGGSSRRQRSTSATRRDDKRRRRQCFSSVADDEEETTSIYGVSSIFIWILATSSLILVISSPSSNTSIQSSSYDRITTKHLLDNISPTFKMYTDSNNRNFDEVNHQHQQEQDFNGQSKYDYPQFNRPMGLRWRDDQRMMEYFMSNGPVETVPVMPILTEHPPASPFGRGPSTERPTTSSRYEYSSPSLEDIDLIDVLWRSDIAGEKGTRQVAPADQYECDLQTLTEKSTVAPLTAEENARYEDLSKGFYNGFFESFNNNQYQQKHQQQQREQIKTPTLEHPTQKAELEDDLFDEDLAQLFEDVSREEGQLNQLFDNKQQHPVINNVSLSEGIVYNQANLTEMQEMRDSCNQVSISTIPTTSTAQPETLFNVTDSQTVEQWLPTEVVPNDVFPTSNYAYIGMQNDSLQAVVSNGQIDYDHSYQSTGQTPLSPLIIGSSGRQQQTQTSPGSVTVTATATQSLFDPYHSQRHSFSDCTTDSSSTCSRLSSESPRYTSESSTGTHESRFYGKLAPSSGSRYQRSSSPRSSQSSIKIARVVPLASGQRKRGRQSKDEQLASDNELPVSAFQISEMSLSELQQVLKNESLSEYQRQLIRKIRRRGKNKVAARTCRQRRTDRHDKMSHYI
The test is classed as functional.

The target in the next test is Galanin receptor type 3 (Homo sapiens, UniProt O60755). Kind of test: Fluorescence-based cell-based primary high throughput dose response assay to identify antagonists of the Galanin Receptor 3 (GalR3). Format: functional.
Chain of Galanin receptor type 3 (O60755 whole entry): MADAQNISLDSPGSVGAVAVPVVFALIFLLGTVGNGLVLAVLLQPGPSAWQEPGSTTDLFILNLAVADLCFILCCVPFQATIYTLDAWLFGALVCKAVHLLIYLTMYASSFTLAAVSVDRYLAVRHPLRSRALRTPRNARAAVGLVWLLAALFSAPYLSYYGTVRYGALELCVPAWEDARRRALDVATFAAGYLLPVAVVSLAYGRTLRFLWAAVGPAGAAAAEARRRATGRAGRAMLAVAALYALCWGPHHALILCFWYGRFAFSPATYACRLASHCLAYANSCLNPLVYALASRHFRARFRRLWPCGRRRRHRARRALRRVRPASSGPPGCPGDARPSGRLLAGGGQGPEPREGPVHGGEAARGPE
The nature of another test: cells. The test is classed as functional, cell-based. The following applies: HEK-CNG.
For another test, the target named is Paired box protein Pax-8 (Homo sapiens, UniProt Q06710). Nature of the test: PAX8 transcriptional activity inhibition in RMG-I – RMG-I cells, luciferase, cherry-pick, dose response (AID 687027).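 Note: luciferase reporter driven by Pax8 target thyroperoxidase promoter measured by SteadyGlo luminescence.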 Format: functional, cell-based.
Chain of Paired box protein Pax-8 (Q06710 whole entry): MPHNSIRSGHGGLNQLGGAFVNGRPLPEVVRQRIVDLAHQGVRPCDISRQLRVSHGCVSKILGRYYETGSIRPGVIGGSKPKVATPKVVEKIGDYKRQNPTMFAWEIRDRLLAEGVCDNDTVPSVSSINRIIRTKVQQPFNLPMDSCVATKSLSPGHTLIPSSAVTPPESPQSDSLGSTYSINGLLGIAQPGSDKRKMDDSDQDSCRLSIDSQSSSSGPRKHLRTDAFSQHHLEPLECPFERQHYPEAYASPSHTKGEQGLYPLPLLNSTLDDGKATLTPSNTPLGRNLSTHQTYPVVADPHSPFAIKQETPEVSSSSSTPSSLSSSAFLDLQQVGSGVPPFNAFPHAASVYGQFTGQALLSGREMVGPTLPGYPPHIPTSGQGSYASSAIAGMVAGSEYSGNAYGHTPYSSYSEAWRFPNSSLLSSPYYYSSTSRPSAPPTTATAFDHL

Calls of active or inactive are those of the source. *1 amine or outer side, *2 acyl side, *3 side chain or, on linkers, in order; H or OH if unused. Where a SMILES comes first, the peptide text is derived from it. Bridges are numbered along the chain shown (N, C = ends). [ ]: non-standard residue; d: D form. ξ: configuration not given here. X1 = CC[C@H](CCC[C@@H](O)[C@@H](C)C(=O)O[C@H](C)[C@@H](C)C/C=C(C)/C(=C\C(=O)[*:1])OC)O[*:2]; NMeξIle = CC[C@H](C)C(NC)C(=O)O; NMeV = CN[C@H](C(=O)O)C(C)C; NMeS = CN[C@@H](CO)C(=O)O Bounds are passed on as bounds.

One may read the IC50 as the concentration needed to halve the response being measured. For orientation: AC50 means the concentration giving half of the maximal activity seen. What is called EC50 is the concentration that produces a half-maximal response.

T3 sequence (Q61009 whole entry): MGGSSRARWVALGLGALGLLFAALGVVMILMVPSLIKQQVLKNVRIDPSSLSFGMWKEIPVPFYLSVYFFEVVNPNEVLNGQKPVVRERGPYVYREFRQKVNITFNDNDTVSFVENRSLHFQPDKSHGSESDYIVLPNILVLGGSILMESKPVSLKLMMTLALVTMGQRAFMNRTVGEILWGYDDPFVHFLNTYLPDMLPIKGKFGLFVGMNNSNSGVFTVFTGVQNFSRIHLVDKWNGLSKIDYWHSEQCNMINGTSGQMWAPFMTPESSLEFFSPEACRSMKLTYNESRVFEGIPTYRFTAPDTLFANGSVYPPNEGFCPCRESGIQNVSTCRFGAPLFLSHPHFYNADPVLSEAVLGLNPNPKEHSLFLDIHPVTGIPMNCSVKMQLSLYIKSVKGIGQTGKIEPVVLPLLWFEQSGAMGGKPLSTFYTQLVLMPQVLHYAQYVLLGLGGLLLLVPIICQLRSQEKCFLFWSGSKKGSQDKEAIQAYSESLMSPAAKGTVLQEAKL
Chain of SWI/SNF-related matrix-associated actin-dependent regulator of chromatin subfamily A member 2 (P51531 whole entry): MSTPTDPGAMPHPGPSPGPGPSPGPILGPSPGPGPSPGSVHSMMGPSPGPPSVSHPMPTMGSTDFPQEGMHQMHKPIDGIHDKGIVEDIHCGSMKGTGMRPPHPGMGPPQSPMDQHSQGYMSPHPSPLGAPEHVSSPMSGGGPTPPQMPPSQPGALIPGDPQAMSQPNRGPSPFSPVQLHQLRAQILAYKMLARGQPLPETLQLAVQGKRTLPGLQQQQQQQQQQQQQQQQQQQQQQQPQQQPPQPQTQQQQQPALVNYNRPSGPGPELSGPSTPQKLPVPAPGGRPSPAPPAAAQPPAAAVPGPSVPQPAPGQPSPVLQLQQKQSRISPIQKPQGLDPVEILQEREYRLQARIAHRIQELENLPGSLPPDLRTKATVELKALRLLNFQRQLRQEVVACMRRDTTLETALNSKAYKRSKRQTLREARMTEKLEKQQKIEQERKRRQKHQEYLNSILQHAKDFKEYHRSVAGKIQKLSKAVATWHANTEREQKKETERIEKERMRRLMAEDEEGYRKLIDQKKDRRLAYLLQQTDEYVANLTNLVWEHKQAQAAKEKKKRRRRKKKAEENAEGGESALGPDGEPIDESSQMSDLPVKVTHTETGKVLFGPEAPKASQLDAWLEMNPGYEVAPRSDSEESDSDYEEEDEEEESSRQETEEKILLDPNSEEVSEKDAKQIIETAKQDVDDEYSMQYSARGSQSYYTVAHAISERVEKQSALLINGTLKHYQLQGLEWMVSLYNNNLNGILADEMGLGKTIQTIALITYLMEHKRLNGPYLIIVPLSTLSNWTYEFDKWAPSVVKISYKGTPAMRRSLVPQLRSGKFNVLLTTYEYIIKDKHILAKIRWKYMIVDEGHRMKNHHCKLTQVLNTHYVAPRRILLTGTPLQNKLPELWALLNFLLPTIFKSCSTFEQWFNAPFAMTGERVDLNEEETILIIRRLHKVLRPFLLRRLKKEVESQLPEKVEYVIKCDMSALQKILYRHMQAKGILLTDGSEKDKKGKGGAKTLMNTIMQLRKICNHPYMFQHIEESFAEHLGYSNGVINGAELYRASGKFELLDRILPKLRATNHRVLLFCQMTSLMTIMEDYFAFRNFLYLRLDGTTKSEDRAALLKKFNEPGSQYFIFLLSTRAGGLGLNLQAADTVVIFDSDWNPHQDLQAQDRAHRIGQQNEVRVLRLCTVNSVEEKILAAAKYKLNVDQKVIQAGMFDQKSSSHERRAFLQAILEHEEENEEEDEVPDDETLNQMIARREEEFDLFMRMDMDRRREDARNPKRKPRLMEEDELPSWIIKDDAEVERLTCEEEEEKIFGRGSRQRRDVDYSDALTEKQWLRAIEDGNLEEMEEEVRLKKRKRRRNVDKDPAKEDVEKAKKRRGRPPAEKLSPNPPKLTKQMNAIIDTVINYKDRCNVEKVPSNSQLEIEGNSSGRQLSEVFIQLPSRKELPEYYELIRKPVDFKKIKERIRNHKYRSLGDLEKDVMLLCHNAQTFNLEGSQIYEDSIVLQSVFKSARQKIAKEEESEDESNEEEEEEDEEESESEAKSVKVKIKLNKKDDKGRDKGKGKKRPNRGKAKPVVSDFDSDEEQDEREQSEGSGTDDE

With `COc1ccc(CNC(=O)CSc2n[nH]c3c4cc(OC)ccc4nc-3n2)cc1`, the IC50 in [1] was 8.05 µM (active); in test [2], 76.2 µM (inactive); in test [3], 83.3 µM (inactive); in test [4], 71.6 µM (inactive).
Regarding `CCCOCCOC(=O)c1[nH]c2c(c1C)C(=O)CC(c1cc(OC)ccc1OC)C2` (configuration not stated), the IC50 in test [5] was > 80 µM (inactive). Moreover, the AC50 in test [6] is > 52 µM (inactive).
For the compound `CC.CCCCCCC1CCC/C1=N\NC(N)=S` (configuration not stated), the AC50 was 0.00737 µM (active) in test [7], 2.08 µM (active) in test [8] and 0.005 µM (active) in [9].
With `O=C1C=C(c2cccs2)C[C@H](c2ccccc2)[C@H]1n1nnc([N+](=O)[O-])n1`, the EC50 in the test on BJ [10] was 10.3 µM (inconclusive); with BJ [11] it was 9.02 µM (inconclusive); in the test with BJ [12], 3.85 µM (inconclusive); in test [13], 5.51 µM (inconclusive); with BJ [16], 0.242 µM (active); in test [17], > 91.2 µM (inactive). Moreover, the EC50 in test [18] was > 91.2 µM (inactive). Moreover, the values for the AC50 (in test [14]; in test [15]; with INS1) were 0.835 µM (active), 7.95 µM (active) and 4.33 µM (active), respectively.
As for `CC1=C(/C=C/C(C)=C/C=C/C(C)=C/C=C/C=C(C)/C=C/C=C(C)/C=C/C2=C(C)CCCC2(C)C)C(C)(C)CCC1` [BETA CAROTENE], the IC50 at Genome polyprotein [19] was 29.7 µM (not active); at Genome polyprotein [20] it was 34.8 µM (inactive).
Turning to `CC[C@@H]1CCC[C@@H](O)[C@@H](C)C(=O)O[C@H](C)[C@@H](C)C/C=C(C)/C(OC)=C\C(=O)N(C)C([C@@H](C)CC)C(=O)N(C)[C@@H](C(C)C)C(=O)N(C)[C@@H](COC)C(=O)N2CCC[C@H]2C(=O)N(C)[C@@H](C(C)C)C(=O)N2CCC[C@H]2C(=O)O1` (some centres not stated) ([NMeξIle][NMeV][NMeS](Me)P[NMeV]P; linker N-C via X1), the values for the AC50 (in test [21]; in test [22]; at Paired box protein Pax-8) were < 0.26 µM (active), 0.317 µM (active) and < 0.26 µM (active), respectively. Moreover, the IC50 was 57.6 µM (inactive) on Protein skinhead-1 and 0.0171 µM (active) on Galanin receptor type 3. Also, the EC50 in the test “cells” was > 29.9 µM (inactive).

Source of the values: ChEMBL document CHEMBL1201862, “PubChem BioAssay data set” (2004).
